# According to ChEMBL document CHEMBL5723587, “Data for DCP probe BI-113823” (2024):
# Key:
# [1] = molecular target: 5-hydroxytryptamine receptor 1B (Homo sapiens) (UniProt P28222); assay: 5-HT1B Eurofins-Cerep binding assay; parameters: ligand concentration 1 nM; conditions: Compound concentration 10.0 uM
# [2] = molecular target: Cannabinoid receptor 1 (Homo sapiens) (UniProt P21554); assay: CB1 Eurofins-Cerep binding assay; conditions: Compound concentration 10.0 uM
# [3] = molecular target: Prostaglandin G/H synthase 1 (Homo sapiens) (UniProt P23219); assay: Inhibitor of COX-1 in the Eurofins Cerep SafetyScreen44 (BI) by Fluorimetry (Cerep_4173); conditions: Compound concentration 10.0 uM
# Prostaglandin G/H synthase 1 (Homo sapiens), sequence (P23219 whole entry): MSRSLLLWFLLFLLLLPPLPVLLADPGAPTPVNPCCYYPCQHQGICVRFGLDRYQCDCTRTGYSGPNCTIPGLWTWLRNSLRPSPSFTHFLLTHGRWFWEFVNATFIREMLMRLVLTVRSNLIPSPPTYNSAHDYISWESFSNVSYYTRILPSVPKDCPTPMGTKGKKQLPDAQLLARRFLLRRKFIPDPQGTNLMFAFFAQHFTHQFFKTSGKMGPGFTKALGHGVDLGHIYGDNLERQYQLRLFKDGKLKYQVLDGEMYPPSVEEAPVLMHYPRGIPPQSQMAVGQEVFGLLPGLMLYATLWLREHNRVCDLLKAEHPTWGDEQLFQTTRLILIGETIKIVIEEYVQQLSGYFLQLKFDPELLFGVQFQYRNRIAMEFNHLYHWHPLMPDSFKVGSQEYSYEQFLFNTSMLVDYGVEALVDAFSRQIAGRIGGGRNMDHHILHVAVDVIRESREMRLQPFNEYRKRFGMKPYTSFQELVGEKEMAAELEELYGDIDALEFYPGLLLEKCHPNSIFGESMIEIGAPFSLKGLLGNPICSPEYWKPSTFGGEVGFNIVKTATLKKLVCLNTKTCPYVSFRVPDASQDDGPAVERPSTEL
# [4] = molecular target: Prostaglandin G/H synthase 2 (Homo sapiens) (UniProt P35354); assay: Inhibitor of COX-2 in the Eurofins Cerep SafetyScreen44 (BI) by Fluorimetry (Cerep_4186); conditions: Compound concentration 10.0 uM
# [5] = molecular target: Kappa-type opioid receptor (Homo sapiens) (UniProt P41145); assay: kappa (KOP) Eurofins-Cerep binding assay; conditions: Compound concentration 10.0 uM
# Kappa-type opioid receptor (Homo sapiens), sequence (P41145 whole entry): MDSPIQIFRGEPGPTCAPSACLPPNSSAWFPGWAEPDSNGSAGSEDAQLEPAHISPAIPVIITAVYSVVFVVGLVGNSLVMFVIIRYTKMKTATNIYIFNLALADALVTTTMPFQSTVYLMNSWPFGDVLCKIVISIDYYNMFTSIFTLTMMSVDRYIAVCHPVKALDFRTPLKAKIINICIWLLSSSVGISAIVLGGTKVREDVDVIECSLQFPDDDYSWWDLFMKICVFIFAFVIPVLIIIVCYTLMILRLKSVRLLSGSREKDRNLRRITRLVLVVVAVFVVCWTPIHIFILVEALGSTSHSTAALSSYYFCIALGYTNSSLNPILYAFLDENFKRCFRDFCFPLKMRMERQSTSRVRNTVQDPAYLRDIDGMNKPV
# [6] = molecular target: 5-hydroxytryptamine receptor 1A (Homo sapiens) (UniProt P08908); assay: 5-HT1A Eurofins-Cerep binding assay; parameters: ligand concentration 0.5 nM; conditions: Compound concentration 10.0 uM
# [7] = molecular target: 5-hydroxytryptamine receptor 2A (Homo sapiens) (UniProt P28223); assay: Agonist activity in the Eurofins Cerep SafetyScreen44 (BI) against 5HT2AH_AGON by Scintillation counting (Cerep_471); conditions: Compound concentration 10.0 uM
# [8] = molecular target: 5-hydroxytryptamine receptor 2B (Homo sapiens) (UniProt P41595); assay: 5-HT2B Eurofins-Cerep binding assay; conditions: Compound concentration 10.0 uM
# [9] = molecular target: 5-hydroxytryptamine receptor 3A (Homo sapiens) (UniProt P46098); assay: 5-HT3 Eurofins-Cerep binding assay; parameters: ligand concentration 0.5 nM; conditions: Compound concentration 10.0 uM
# [10] = molecular target: Adenosine receptor A2a (Homo sapiens) (UniProt P29274); assay: A2A Eurofins-Cerep binding assay; parameters: ligand concentration 6 nM; conditions: Compound concentration 10.0 uM
# [11] = molecular target: Angiotensin-converting enzyme (Homo sapiens) (UniProt P12821); assay: Activity against ACE(HU_AMTCH400) in the Eurofins Cerep SafetyScreen44 (BI) by Photometry (Cerep_3441); conditions: Compound concentration 10.0 uM
# [12] = molecular target: Alpha-1A adrenergic receptor (Homo sapiens) (UniProt P35348); assay: Agonist activity in the Eurofins Cerep SafetyScreen44 (BI) against ALPHA1AH_ANTAG by Scintillation counting (Cerep_2338); conditions: Compound concentration 10.0 uM
# [13] = molecular target: Alpha-2A adrenergic receptor (Homo sapiens) (UniProt P08913); assay: Inhibitor of ALPHA2A/HU in the Eurofins Cerep SafetyScreen44 (BI) by Radioactive Assay (Cerep_13); conditions: Compound concentration 10.0 uM
# [14] = molecular target: Beta-1 adrenergic receptor (Homo sapiens) (UniProt P08588); assay: beta 1 Eurofins-Cerep binding assay; parameters: ligand concentration 0.3 nM; conditions: Compound concentration 10.0 uM
# [15] = molecular target: Beta-2 adrenergic receptor (Homo sapiens) (UniProt P07550); assay: beta 2 Eurofins-Cerep binding assay; conditions: Compound concentration 10.0 uM
# Rattus norvegicus [16] = organism: Rattus norvegicus; assay: Activity against BZD/CENTR/R in the Eurofins Cerep SafetyScreen44 (BI) by Radioactive Assay (Cerep_28); type: protein-complex assay; conditions: Compound concentration 10.0 uM
# [17] = molecular target: L-type calcium channel (dihydropyridine site), Cav1.2 alpha-1C (Rattus norvegicus, UniProt P22002); assay: Inhibitor of CA+/DHPSI/R in the Eurofins Cerep SafetyScreen44 (BI) by Radioactive Assay (Cerep_161); type: protein assay; parameters: scale not given: the % may be the effect or the level left; conditions: rat brain, probe [3H](+)PN200-110, compound concentration 10 uM, read-out: % Ctrl
# L-type calcium channel (dihydropyridine site), Cav1.2 alpha-1C, sequence (P22002 whole entry): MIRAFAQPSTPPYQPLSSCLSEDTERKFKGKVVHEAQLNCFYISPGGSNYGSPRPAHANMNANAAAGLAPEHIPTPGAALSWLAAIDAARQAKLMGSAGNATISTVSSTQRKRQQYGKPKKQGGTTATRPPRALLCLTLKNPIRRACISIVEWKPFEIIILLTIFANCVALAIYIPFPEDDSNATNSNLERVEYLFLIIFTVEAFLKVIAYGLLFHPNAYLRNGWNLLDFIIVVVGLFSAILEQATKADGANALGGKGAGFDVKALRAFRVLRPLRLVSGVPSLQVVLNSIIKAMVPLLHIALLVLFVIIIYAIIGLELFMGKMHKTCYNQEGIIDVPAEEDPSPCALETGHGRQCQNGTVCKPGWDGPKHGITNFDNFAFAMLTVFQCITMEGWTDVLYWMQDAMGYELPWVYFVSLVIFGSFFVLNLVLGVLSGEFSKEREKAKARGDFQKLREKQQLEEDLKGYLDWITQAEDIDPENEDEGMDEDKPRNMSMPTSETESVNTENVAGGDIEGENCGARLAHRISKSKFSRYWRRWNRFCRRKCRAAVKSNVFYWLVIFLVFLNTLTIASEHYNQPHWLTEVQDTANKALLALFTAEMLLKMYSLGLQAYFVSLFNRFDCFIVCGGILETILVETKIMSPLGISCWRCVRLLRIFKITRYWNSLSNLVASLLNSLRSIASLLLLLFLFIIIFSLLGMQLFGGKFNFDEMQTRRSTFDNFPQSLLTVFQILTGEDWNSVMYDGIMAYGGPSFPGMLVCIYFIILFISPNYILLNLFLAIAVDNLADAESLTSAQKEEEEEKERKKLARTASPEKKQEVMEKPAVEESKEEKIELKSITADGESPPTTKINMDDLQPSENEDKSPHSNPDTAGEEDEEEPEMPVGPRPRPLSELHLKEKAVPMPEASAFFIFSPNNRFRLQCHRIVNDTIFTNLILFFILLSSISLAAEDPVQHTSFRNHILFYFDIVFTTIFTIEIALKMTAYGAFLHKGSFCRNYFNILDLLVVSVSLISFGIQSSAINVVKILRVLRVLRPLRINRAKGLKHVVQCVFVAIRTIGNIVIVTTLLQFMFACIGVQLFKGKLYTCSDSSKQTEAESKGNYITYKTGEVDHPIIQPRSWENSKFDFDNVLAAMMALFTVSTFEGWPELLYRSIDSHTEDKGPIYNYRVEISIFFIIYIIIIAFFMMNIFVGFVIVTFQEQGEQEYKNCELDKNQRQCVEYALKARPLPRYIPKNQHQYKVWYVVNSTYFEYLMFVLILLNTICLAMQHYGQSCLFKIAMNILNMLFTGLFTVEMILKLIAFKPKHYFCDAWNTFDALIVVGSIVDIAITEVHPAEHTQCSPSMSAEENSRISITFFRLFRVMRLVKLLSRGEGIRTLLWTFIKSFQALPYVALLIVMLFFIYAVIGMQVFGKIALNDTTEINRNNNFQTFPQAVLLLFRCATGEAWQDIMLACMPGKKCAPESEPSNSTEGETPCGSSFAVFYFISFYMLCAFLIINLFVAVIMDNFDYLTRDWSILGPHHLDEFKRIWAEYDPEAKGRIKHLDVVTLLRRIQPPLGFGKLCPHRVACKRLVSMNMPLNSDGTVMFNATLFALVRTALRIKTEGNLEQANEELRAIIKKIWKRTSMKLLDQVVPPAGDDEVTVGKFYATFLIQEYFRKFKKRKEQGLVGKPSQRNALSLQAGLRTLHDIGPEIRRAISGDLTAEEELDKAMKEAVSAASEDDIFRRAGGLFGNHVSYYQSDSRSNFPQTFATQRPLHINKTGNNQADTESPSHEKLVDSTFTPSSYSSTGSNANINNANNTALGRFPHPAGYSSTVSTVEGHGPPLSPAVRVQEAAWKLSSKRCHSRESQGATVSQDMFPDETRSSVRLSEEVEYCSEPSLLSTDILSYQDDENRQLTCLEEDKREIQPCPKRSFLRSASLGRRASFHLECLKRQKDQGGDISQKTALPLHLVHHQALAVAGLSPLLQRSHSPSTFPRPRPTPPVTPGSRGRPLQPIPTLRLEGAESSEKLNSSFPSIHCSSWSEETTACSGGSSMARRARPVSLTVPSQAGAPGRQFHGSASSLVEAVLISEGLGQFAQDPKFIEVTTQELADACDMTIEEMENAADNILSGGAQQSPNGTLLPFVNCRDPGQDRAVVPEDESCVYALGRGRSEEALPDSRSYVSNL
# [18] = molecular target: Cannabinoid receptor 2 (Homo sapiens) (UniProt P34972); assay: Activity against CB2/PERIPH/H in the Eurofins Cerep SafetyScreen44 (BI) by Radioactive Assay (Cerep_37); conditions: Compound concentration 10.0 uM
# [19] = molecular target: Cholecystokinin receptor type A (Homo sapiens) (UniProt P32238); assay: CCK1 (CCKA) Eurofins-Cerep binding assay; parameters: ligand concentration 0.08 nM; conditions: Compound concentration 10.0 uM
# [20] = molecular target: D(1A) dopamine receptor (Homo sapiens) (UniProt P21728); assay: D1 Eurofins-Cerep binding assay; parameters: ligand concentration 0.3 nM; conditions: Compound concentration 10.0 uM
# D(1A) dopamine receptor (Homo sapiens), sequence (P21728 whole entry): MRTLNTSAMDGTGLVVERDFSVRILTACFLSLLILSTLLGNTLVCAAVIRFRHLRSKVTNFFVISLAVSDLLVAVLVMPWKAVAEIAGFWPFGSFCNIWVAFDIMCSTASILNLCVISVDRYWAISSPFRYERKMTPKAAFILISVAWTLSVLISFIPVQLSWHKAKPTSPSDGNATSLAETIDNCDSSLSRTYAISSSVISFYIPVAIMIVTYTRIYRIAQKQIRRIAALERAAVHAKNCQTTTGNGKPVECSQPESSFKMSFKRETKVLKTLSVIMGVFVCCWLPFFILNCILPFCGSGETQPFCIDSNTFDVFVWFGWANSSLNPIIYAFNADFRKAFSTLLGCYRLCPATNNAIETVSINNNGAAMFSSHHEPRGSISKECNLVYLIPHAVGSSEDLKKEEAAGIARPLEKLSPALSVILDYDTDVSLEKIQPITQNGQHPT
# [21] = molecular target: D(2) dopamine receptor (Homo sapiens) (UniProt P14416); assay: Agonist activity in the Eurofins Cerep SafetyScreen44 (BI) against D2SH_AGON by Scintillation counting (Cerep_1322); conditions: Compound concentration 10.0 uM
# [22] = molecular target: Sodium-dependent dopamine transporter (Homo sapiens) (UniProt Q01959); assay: dopamine transporter Eurofins-Cerep binding assay; conditions: Compound concentration 10.0 uM
# [23] = molecular target: Delta-type opioid receptor (Homo sapiens) (UniProt P41143); assay: delta (DOP) Eurofins-Cerep binding assay; parameters: ligand concentration 0.5 nM; conditions: Compound concentration 10.0 uM
# [24] = molecular target: Endothelin-1 receptor (Homo sapiens) (UniProt P25101); assay: ETA Eurofins-Cerep binding assay; parameters: ligand concentration 0.03 nM; conditions: Compound concentration 10.0 uM
# Endothelin-1 receptor (Homo sapiens), sequence (P25101 whole entry): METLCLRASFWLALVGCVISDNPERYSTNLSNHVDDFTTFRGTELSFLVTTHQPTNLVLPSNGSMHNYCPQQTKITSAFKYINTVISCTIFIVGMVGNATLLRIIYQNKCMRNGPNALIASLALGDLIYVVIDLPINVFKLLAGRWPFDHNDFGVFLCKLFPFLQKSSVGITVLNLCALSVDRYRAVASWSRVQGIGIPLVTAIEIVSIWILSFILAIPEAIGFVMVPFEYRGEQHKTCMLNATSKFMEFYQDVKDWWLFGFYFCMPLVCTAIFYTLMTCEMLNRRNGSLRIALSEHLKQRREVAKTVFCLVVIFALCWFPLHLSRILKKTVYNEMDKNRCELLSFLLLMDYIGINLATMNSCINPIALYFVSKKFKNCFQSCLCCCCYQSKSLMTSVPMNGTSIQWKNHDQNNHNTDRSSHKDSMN
# [25] = molecular target: Glucocorticoid receptor (Homo sapiens) (UniProt P04150); assay: GR Eurofins-Cerep binding assay; conditions: Compound concentration 10.0 uM
# [26] = molecular target: Histamine H1 receptor (Homo sapiens) (UniProt P35367); assay: H1 Eurofins-Cerep binding assay; parameters: ligand concentration 1 nM; conditions: Compound concentration 10.0 uM
# [27] = molecular target: Histamine H2 receptor (Homo sapiens) (UniProt P25021); assay: H2 Eurofins-Cerep binding assay; parameters: ligand concentration 0.075 nM; conditions: Compound concentration 10.0 uM
# hERG (KCNH2) = hERG (KCNH2) (Homo sapiens, UniProt Q12809); assay: Inhibitor of HERG_DOFETILIDE in the Eurofins Cerep SafetyScreen44 (BI) by Scintillation counting (Cerep_4094); parameters: scale not given: the % may be the effect or the level left; conditions: probe [3H]dofetilide, compound concentration 10 uM, read-out: % Ctrl
# Rattus norvegicus [28] = organism: Rattus norvegicus; assay: KV channel Eurofins-Cerep binding assay; parameters: ligand concentration 0.01 nM; conditions: Compound concentration 10.0 uM
# [29] = molecular target: Tyrosine-protein kinase Lck (Homo sapiens) (UniProt P06239); assay: Inhibitor of LCK_CE in the Eurofins Cerep SafetyScreen44 (BI) by lanthanide chelation excitation (Cerep_2906); conditions: Compound concentration 10.0 uM
# [30] = molecular target: Muscarinic acetylcholine receptor M1 (Homo sapiens) (UniProt P11229); assay: M1 Eurofins-Cerep binding assay; parameters: ligand concentration 2 nM; conditions: Compound concentration 10.0 uM
# [31] = molecular target: Muscarinic acetylcholine receptor M2 (Homo sapiens) (UniProt P08172); assay: M2 Eurofins-Cerep binding assay; parameters: ligand concentration 2 nM; conditions: Compound concentration 10.0 uM
# [32] = molecular target: Muscarinic acetylcholine receptor M3 (Homo sapiens) (UniProt P20309); assay: M3 Eurofins-Cerep binding assay; parameters: ligand concentration 0.2 nM; conditions: Compound concentration 10.0 uM
# [33] = molecular target: MAO-A (amine oxidase [flavin-containing] A) (Homo sapiens, UniProt P21397); assay: Agonist activity in the Eurofins Cerep SafetyScreen44 (BI) against MAO-A_ANTAG by Scintillation counting (Cerep_443); parameters: scale not given: the % may be the effect or the level left; conditions: rat; compound concentration 10 uM; target entry is the homologue from another species; read-out: % Ctrl
# [34] = molecular target: Mu-type opioid receptor (Homo sapiens) (UniProt P35372); assay: mu (MOP) Eurofins-Cerep binding assay; parameters: ligand concentration 0.5 nM; conditions: Compound concentration 10.0 uM
# Mu-type opioid receptor (Homo sapiens), sequence (P35372 whole entry): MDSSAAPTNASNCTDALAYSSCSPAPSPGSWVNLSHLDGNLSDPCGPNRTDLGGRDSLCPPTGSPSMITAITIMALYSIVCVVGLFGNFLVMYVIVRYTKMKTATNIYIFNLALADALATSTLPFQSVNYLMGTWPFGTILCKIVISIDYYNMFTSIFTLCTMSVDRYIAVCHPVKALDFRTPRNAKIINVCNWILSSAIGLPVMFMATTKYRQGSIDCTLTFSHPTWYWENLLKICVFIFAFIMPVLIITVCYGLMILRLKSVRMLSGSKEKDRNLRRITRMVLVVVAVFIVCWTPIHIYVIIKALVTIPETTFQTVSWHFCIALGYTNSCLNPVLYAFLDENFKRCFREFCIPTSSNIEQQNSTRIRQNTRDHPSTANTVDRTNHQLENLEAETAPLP
# [35] = molecular target: Sodium-dependent noradrenaline transporter (Homo sapiens) (UniProt P23975); assay: norepinephrine transporter Eurofins-Cerep binding assay; parameters: ligand concentration 1 nM; conditions: Compound concentration 10.0 uM
# [36] = molecular target: Glutamate NMDA receptor (Rattus norvegicus) (UniProt P35439+Q00959+Q00960+Q00961+Q62645+Q8VHN2+Q9R1M7); assay: Inhibitor of NMDA/R in the Eurofins Cerep SafetyScreen44 (BI) by Radioactive Assay (Cerep_66); type: protein-complex assay; conditions: Compound concentration 10.0 uM
# Homo sapiens = organism: Homo sapiens; assay: Agonist activity in the Eurofins Cerep SafetyScreen44 (BI) against N_NEURO_A4B2 by Radioligand Binding (Cerep_3029); type: protein-complex assay; conditions: Compound concentration 10.0 uM
# [37] = molecular target: cGMP-inhibited 3',5'-cyclic phosphodiesterase 3A (Homo sapiens) (UniProt Q14432); assay: Inhibitor of PDE3A in the Eurofins Cerep SafetyScreen44 (BI) by HTRF-homogeneous time resolved fluoresce (Cerep_4072); conditions: Compound concentration 10.0 uM
# [38] = molecular target: 3',5'-cyclic-AMP phosphodiesterase 4D (Homo sapiens) (UniProt Q08499); assay: Inhibitor of PDE4D2 in the Eurofins Cerep SafetyScreen44 (BI) by Scintillation counting (Cerep_4077); conditions: Compound concentration 10.0 uM
# [39] = molecular target: Sodium-dependent serotonin transporter (Homo sapiens) (UniProt P31645); assay: 5-HT transporter Eurofins-Cerep binding assay; parameters: ligand concentration 2 nM; conditions: Compound concentration 10.0 uM
# [40] = molecular target: Vasopressin V1a receptor (Homo sapiens) (UniProt P37288); assay: V1a Eurofins-Cerep binding assay; parameters: ligand concentration 0.3 nM; conditions: Compound concentration 10.0 uM
# B1 bradykinin receptor [41] = molecular target: T1, B1 bradykinin receptor (Homo sapiens, UniProt P46663); assay: Radioligand binding assay (displacement of kallidin, hBDKRB1 ) at 10 µM ( Non-specific binding is estimated in the presence of 10 µM Des-Arg9- (Leu8)-Bradykinin. Membranes are filtered and washed, the filters are then counted to determine [3H]Kallidin[des-Arg10, Leu9] specifically bound.); parameters: compound concentration 10 uM
# T1 sequence (P46663 whole entry): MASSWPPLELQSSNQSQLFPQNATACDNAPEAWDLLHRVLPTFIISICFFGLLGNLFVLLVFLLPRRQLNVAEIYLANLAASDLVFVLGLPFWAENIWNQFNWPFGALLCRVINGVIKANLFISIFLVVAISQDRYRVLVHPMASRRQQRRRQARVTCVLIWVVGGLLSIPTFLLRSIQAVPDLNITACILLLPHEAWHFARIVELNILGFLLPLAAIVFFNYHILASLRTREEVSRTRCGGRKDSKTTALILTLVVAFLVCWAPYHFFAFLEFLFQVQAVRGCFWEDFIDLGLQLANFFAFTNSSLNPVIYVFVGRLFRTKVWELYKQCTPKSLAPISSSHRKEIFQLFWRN
# B1 bradykinin receptor [42] = molecular target: T1, B1 bradykinin receptor; assay: Measurement of intracellular calcium in HEK-cells expressing hBDKRB1 at up to 1 µM ( The compound antagonizes the effects of the specific B1 agonist [Lys-des-Arg9 ]-Bradykinin (10 nM) in a concentration-dependent manner.); type: functional, cell-based; parameters: compound concentration < 1 uM
# [43] = molecular target: Androgen receptor (Homo sapiens) (UniProt P10275); conditions: Compound concentration 10.0 uM
# Description: Activity against ANDROGEN/H in the Eurofins Cerep SafetyScreen44 (BI) by Radioactive Assay (Cerep_933)
# Cannabinoid receptor 1 (Homo sapiens), sequence (P21554 whole entry): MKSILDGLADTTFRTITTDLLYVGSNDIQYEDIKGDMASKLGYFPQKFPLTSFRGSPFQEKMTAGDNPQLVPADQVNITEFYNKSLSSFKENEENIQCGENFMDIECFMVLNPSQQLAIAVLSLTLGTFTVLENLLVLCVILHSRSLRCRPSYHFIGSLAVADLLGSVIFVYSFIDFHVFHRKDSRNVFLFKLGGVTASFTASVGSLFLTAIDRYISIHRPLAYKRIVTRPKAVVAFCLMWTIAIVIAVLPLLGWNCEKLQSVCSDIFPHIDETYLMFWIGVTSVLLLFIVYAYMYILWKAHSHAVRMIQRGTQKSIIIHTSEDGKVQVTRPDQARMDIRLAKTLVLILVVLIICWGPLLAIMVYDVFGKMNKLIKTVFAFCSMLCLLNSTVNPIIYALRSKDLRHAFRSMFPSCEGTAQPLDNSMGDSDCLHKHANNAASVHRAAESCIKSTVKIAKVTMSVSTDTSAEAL
smiles,measurement,setting,value
COc1cc(C)c(S(=O)(=O)N(C)CCC(=O)N[C@H]2CC[C@@H](N3CCC4CN(C)CC4C3)CC2)c(C)c1 (stereo not given in full),residual activity,[1],92%
same,residual activity,[2],137%
same,residual activity,[3],85%
same,residual activity,[4],98%
same,residual activity,[5],42%
same,residual activity,[6],99%
same,residual activity,[7],108%
same,residual activity,[8],81%
same,residual activity,[9],93%
same,residual activity,[10],124%
same,residual activity,[11],97%
same,residual activity,[12],91%
same,residual activity,[13],90%
same,residual activity,[14],97%
same,residual activity,[15],101%
same,residual activity,Rattus norvegicus [16],105%
same,activity at 10 µM,[17],120% (not active)
same,residual activity,[18],106%
same,residual activity,[19],85%
same,residual activity,[20],94%
same,residual activity,[21],97%
same,residual activity,[22],98%
same,residual activity,[23],87%
same,residual activity,[24],109%
same,residual activity,[25],102%
same,residual activity,[26],104%
same,residual activity,[27],113%
same,activity at 10 µM,hERG (KCNH2),63% (not active)
same,residual activity,Rattus norvegicus [28],98%
same,residual activity,[29],94%
same,residual activity,[30],89%
same,residual activity,[31],67%
same,residual activity,[32],92%
same,activity at 10 µM,[33],106% (not active)
same,residual activity,[34],96%
same,residual activity,[35],93%
same,residual activity,[36],112%
same,residual activity,Homo sapiens,98%
same,residual activity,[37],105%
same,residual activity,[38],104%
same,residual activity,[39],103%
same,residual activity,[40],87%
same,Ki,B1 bradykinin receptor [41],431 nM (not active)
same,IC50,B1 bradykinin receptor [42],699 nM (not active)
same,residual activity,[43],90%
